Series [1] has as its system human naïve state stem cells. Briefly: Stem cell drug screen on naïve state stem cells (pluripotency, proliferation, differentiation). The format is cell-based. Particulars: first panel (FIGS. 2, 7-10); small molecules 6 uM; 3 days; with or without NME7AB. On the procedure:
(§1) The stem cell screening assay, was performed in both the presence and absence of the stem cell growth factors: NME7AB for growing naïve stem cells or FGF for growing primed stem cells. If the cognate growth factor was present, then the biological or small molecule would have to compete away the growth factor to get an effect. Therefore, we expected to see more of an effect when the growth factor, FGF for primed stem cells or NME7AB or NME1 dimers for naïve stem cells, was absent. The effect of the compounds on stem cells was visually determined and compounds were ranked 0-4, with 4 being the greatest effect and 0 being no observable effect. The major effect that was observed was a change from pluripotent stem cell morphology, which is a cobblestone pattern of small round cells with a large nucleus to cytoplasm ratio, to that of differentiating stem cells, which are elongated, large and flattened cells with a smaller nucleus to cytoplasm ratio. […] The compounds were added to a final concentration of 6 uM to either naïve state stem cells or primed state stem cells. In this particular case, the naïve state stem cells were maintained in a naïve state by culturing in a media containing NME7AB or NME1 dimers. However, other methods such as 2i and 5i (Silva et al., 2008, Nichols and Smith, 2009, Theunissen et al., 2014)] can be used to maintain stem cells in a more naïve state. In this case primed state stem cells were cultured in bFGF over a layer of MEFs, although it is known that any bFGF containing media will maintain stem cells in the primed state.
(§2) Percent inhibition of cancer cell migration was performed in a wound healing assay. The percent area that the invading cancer cells occupied, in the presence of a drug candidate compared to the controls, was quantified by Image J cell software which enables cell counting from photographs. IC50's were calculated by performing migration experiments at several compound concentrations and then applying Hill's equation. Inhibition of cancer cell proliferation was quantified by automated cell counting in the presence or absence of a drug candidate. Here, the inhibition of cancer cell proliferation was scored 1 if proliferation was inhibited by 25%, 2 if inhibited by […] and 4 for the highest degree of inhibition of proliferation, and 0 for the lowest. The effect of the drug candidates on stem cell pluripotency or proliferation was scored by eye, based on cell morphology and cell density, with 0 being no change in morphology or cell number and 4 being the most profound effect, with the stem cells taking on the morphology of a differentiating cell, along with much fewer cells indicative of inhibition of proliferation. As an example, FIGS. 30A-30F show photographs of naïve stem cell, primed stem cell and fibroblast controls. FIGS. 31A-31F show the effect of compounds of the invention on naïve state stem cells, where the number of ‘+’ signs indicates the score from 0-4 of ability of compound to inhibit pluripotency, proliferation of naïve stem cells or ability to induce their differentiation. […] FIGS. 36-44 and 65-87 show photographs and IC50 graphs of the compounds of the invention, inhibiting cancer cell migration and invasion. Cancer cell migration is a hallmark of metastatic cancer.
Stem cells whether embryonic or induced pluripotent stem (iPS) cells were cultured in a minimal, serum-free media that contained human recombinant NME7AB at a concentration of 2-32 nM wherein 4-8 nM is preferred and 4 nM is more preferred. To facilitate surface attachment, cell culture plates were coated with an anti-MUC1* monoclonal antibody called MN-C3 or C3 or MN-C8 at a concentration of 2-100 μg/mL coating solution, wherein 3-50 ug/mL is preferred and 6-12.5 ug/mL is more preferred. In these experiments, 12.5 ug/mL of MN-C3 was used. Antibody coated plates were incubated at 4 degrees C. overnight prior to plating stem cells. A Rho kinase I inhibitor was added to enhance surface attachment. […]

In series [2] the test system is human primed state stem cells. As to the kind of experiment: Stem cell drug screen on primed state stem cells (pluripotency, proliferation, differentiation). Type of series: cell-based. Particulars: for induction of differentiation / effect on growth of primed state stem cells: treated for 3 days, JQ1 at 500 nM or 1 uM (FIGS. 11-12). The method, then: as §1, §2
Stem cells whether embryonic or induced pluripotent stem (iPS) cells were cultured in a minimal, serum-free media that contained human recombinant bFGF at a concentration of 8 ng/mL. The stem cells were plated over a layer of inactivated mouse embryonic fibroblasts, aka MEFs, which secrete additional uncharacterized growth factors and cytokines.
Human naïve state and primed stem cells were cultured in parallel for at least 5 passages to guarantee normal differentiation-free growth. The stem cells were plated in 12-well cell culture plates with 50,000 cells per well. Cells were cultured in their respective media, either bFGF media or NME7AB media for 24 hours. […]

The subject of series [3] is fibronectin, vimentin, NF1. Briefly: RT-PCR of markers of differentiation in naïve stem cells. Type of series: cell-based, human. From the text:
The genes whose expression increased as a result of treatment with the compounds of the invention, in a concentration dependent manner, are fibronectin and vimentin, which both increase as stem cells initiate differentiation and NF1, which is one of the first genes to increase when stem cells begin to differentiate down the neural lineage. […] Thus, compounds of the invention that induce markers of differentiation are useful for the treatment of cancers, because cancer cells, by definition, have de-differentiated, which allows them to continually self-replicate. […] Expression of metastatic marker E-cadherin was reduced and expression of differentiation markers fibronectin, vimentin and NF1 were increased.

Series [4] has as its system cancer cells. Particulars: in vitro; stated as previously shown; cited from earlier work.
The subject of series [5] is cancer cells. To be noted: NME7AB-driven transformation; stated as previously shown; cited from earlier work.
The test system of series [6] is human naïve state stem cells. As to the kind of experiment: Stem cell drug screen on naïve state stem cells (pluripotency, proliferation, differentiation). Particulars: JQ1 at 500 nM or 1 uM, naïve cells from NME7AB or NME1 dimers (FIGS. 13-16). Type of series: cell-based.
A further series concerns human fibroblasts. As to the kind of experiment: Effect on fibroblasts as surrogate for normal cells. The format is cell-based. To be noted: 500 nM final concentration (FIG. 24). From the text:
However, fibroblasts are more differentiated than stem cells but are able to self-replicate for defined periods of time. We tested selected compounds of the invention to determine if these compounds were just cytotoxic or if they selectively affected stem cells and, importantly, cancer cells, but not normal, healthy cells. Here, we used fibroblasts as a surrogate for normal cells. […] […] Each compound was scored for its effect on fibroblast proliferation where “+” indicates 25% inhibition of fibroblast growth, “++” 50% inhibition and “+++” 75% inhibition of growth.

The source of these data is patent US12630512B2, “Agents for differentiating stem cells and treating cancer” (Minerva Biotechnologies Corporation, priority 2017, dated 2026).

For `CCCCNC(=O)N1CCc2c([nH]c3ccccc23)C1C(C)c1ccccc1` (centres unmarked) [MN1130], the “induced differentiation / inhibited pluripotency and growth of naïve state stem cells” value in series [1] is given as “induced differentiation”. The “effect on primed stem cells” value in series [2] (first panel (FIGS. 2-6), small molecules 6 uM, 3 days, with or without FGF) is on record as “modest effect”.
As to `Cc1[nH]c(/C=C2\C(=O)Nc3ccc(S(=O)(=O)N(C)c4cccc(Cl)c4)cc32)c(C)c1C(=O)N1CCN(C)CC1` [SU11274], the “up-regulation of markers of differentiation in stem cells” value in series [3] is reported as “did not cause up-regulation of markers of differentiation”.
Consider `COC(=O)c1ccc(C2c3[nH]c4ccccc4c3CCN2C(=O)c2cccc(Cl)c2)cc1` (centres unmarked) [MN0642], for which, in the series on cancer cells [4], the “inhibition of cancer cell growth” value was “inhibit the growth of cancer cells in vitro”. Further, the “induced differentiation / inhibited pluripotency and growth of naïve state stem cells” value in series [1] is listed as “induced differentiation”.
As for “FLR peptide: synthetic peptide corresponding to the extracellular domain of MUC1*, FLR also known as PSMGFR (SEQ ID NO:3) (GTINVHDVETQFNQYKTEAASRYNLTISDVSVSDVPFPFSAQSGA; the extracellular domain of Native Primary Sequence of the MUC1 Growth Factor Receptor (nat-PSMGFR - an example of "PSMGFR"))”, in series [1], the “induced differentiation / inhibited pluripotency and growth of naïve state stem cells” value is given as “induced differentiation”. Besides, in the series with cancer cells [5], the “inhibition of the transition of regular cancer cells to metastatic cancer cells” value is “inhibit the transition”.
With `Cc1sc2c(c1C)C(c1ccc(Cl)cc1)=N[C@@H](CC(=O)OC(C)(C)C)c1nnc(C)n1-2` [JQ1(+), reference compound], in series [3], the “up-regulation of markers of differentiation in stem cells” value was “did not cause up-regulation of markers of differentiation”. Also, the “effect on naïve state stem cell differentiation and growth” value in series [6] is “dramatically induced differentiation of naïve state stem cells and inhibited their growth”; in series [6] (listed as JQI), “inhibitory effect”. Further, the “effect on human fibroblasts” value in the series on human fibroblasts is “same effect on fibroblasts as it does on primed state stem cells”. Besides, the “effect on the size of primed stem cell colonies” value in series [2] (treated for 3 days (FIG. 11)) was “modest effect”. Also, the “induction of differentiation / effect on growth of primed state stem cells” value is reported as “None of these agents appeared to induce differentiation” in series [2] and “not primed stem cell growth” in series [2] (listed as JQI).
